For one compound, IC50 results are on record in patent publication US20210395210A1, “INHIBITION OF BACTERIAL CHAPERONIN SYSTEMS” (THE TRUSTEES OF INDIANA UNIVERSITY, priority 2018, published 2021).

This experiment addresses T1, native MDH (Sus scrofa, UniProt P00346).
T1 construct: soluble pig heart MDH from Roche, product #10127248001; purchased Roche 10127248001; host or cells: pig heart
T1 sequence (P00346 25-338): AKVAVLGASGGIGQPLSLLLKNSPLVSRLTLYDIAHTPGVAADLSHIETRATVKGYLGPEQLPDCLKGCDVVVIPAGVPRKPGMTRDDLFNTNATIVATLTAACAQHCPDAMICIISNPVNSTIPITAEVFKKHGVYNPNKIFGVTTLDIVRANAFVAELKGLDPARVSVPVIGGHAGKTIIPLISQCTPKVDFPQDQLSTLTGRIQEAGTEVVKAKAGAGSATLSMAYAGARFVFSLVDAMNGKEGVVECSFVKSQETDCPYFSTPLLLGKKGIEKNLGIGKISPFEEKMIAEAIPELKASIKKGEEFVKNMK
In words: Counter-screen for inhibition of native MDH enzymatic activity. In kind it is biochemical, pig. As to the method: Reagent Preparations & Assay Protocol: This assay was performed as described above for the GroEL/ES-dMDH refolding assay; however, the assay protocol differed in the sequence of compound addition to the assay plates. The refolding reactions were allowed to proceed for 45 min at 37° C. in the absence of test compounds (complete refolding of MDH occurs), then quenched with the EDTA stock. Compounds were then pin-transferred into the plates after the EDTA quenching step; thus, compounds effects are only possible by inhibiting the fully-refolded MDH reporter substrate. […] A340 nm measurements were recorded at 0.5 minutes (start point) and at successive time points until the amount of NADH consumed reached ˜90% (end point, generally between 20-35 minutes). Compounds were tested in 8-point, 3-fold dilution series (62.5 μM to 29 nM during the reporter reaction) in clear, flat-bottom 384-well microtiter plates. DMSO was used as a negative control, and previously discovered native MDH inhibitors were used as positive controls. […] Results presented represent the averages of IC50 values obtained from at least quadriplicate (duplicate of duplicate) replicates.
Background: The purpose of a counterscreen is to sort out artefacts and off-target activity.

Some results are limits rather than exact numbers.

Broadly, the IC50 is the concentration at which inhibition is half-maximal. The low end stands for higher potency, the high end for lower potency. `O=C(Nc1ccccc1)c1ccccc1` [Compound 28, N-Phenylbenzamide]: the IC50 was above 63 µM (Biochemical Assay IC50 Native MDH Reporter) and above 63.1 µM (log(IC50) Native MDH Reporter, log of IC50 (μM scale), with standard deviation).
